Results on one molecule are retold here after ChEMBL document CHEMBL1148050, “Sigmoidins J and K, two new prenylated isoflavonoids from Erythrina sigmoidea” (1994).

As a reminder, the MIC is the smallest concentration in the dilution series that meets the test's criterion for growth inhibition.

Common to all, as to format: functional
The subject of one assay is Cryptococcus neoformans. As to the kind of experiment: Antifungal activity against Cryptococcus neoformans.
In a further assay the test system is Staphylococcus aureus. As to the kind of experiment: Antibacterial activity against Staphylococcus aureus.
The subject of a further assay is Aspergillus fumigatus. As to the kind of experiment: Antifungal activity against Aspergillus fumigatus.

≈ marks a conversion by molar mass, not a printed value.

Consider `CC(C)=CCc1cc(-c2coc3cc(O)ccc3c2=O)ccc1O` [NEOBAVAISOFLAVONE], for which the figures for the MIC in the assay with Cryptococcus neoformans, against Staphylococcus aureus and against Aspergillus fumigatus were 50 µg/mL (≈ 155 µM), 3.2 µg/mL (≈ 9.93 µM) and 50 µg/mL (≈ 155 µM), respectively.
